# Tests used:
# mice spermatogonial = experiment: Chromosome aberration test of mice spermatogonial; assay type: in vivo
# Procedure: (§1) The toxicological indexes of the compound were tested following the standard GB15670-1995 “Toxicological test methods of pesticides for registration” by Tongji Medical College, Huazhong University of Science and Technology.
# NADH oxidase (NOX) = NADH oxidase (NOX) (Sus scrofa, UniProt P24964); experiment: Enzyme activity test, NOX; assay type: biochemical; settings: azoxystrobin as control agent
# Sequence of NADH oxidase (NOX) (P24964 whole entry): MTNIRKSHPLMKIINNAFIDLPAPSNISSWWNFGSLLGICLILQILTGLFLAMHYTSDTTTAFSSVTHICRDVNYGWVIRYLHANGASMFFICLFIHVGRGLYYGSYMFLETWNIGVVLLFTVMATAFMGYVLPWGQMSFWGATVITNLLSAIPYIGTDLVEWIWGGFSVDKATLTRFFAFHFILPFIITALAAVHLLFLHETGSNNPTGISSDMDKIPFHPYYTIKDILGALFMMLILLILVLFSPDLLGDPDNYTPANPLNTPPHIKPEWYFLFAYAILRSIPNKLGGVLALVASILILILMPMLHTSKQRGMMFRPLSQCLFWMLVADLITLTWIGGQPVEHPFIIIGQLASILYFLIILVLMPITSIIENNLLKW
# Procedure: Take NADH oxidase (NOX), succinate-cytochrome C oxidase (SCO), and Complex III as target enzymes, the inhibitory activity of the compound of Formula (I) was tested.
# ^a NOX is generally used to detect an inhibitor of Complex I and Complex III; SCO is generally used to detect an inhibitor of Complex II and Complex III. Thus, an inhibitor of Complex III should have inhibitory activity on the two enzymes.
# Cercospora arachidicola = experiment: microbe, parasite or virus in culture; assay type: cell-based; settings: Mycosphaerella arachidis, read-out: Inhibition rate (%)
# [1] = tested on: Cucumber gray mold (Q503001); experiment: In vivo micro-screening assay
# Procedure: In Vivo Micro-Screening Assay
# (§2) To further study the fungicidal spectrum of the compound of Formula (I), indoor in vivo micro-screening assay were carried out on cucumber gray mold, cucumber scab, cucumber sclerotinia rot, cucumber brown spot, pepper phytophthora blight, and rice sheath blight.
# (§3) Medicament to be tested and medicament of control groups were prepared as needed in a sunny morning. Cucumber gray mold, cucumber scab, cucumber brown spot, cucumber sclerotinia rot, and rice sheath blight were medicated by spray, and after air dry, pathogens of cucumber scab and of cucumber brown spot were inoculated through spraying spore suspension respectively, pathogens of cucumber gray mold, of cucumber sclerotinia rot, and of rice sheath blight were inoculated through lawn foliage. Pepper phytophthora blight was medicated and inoculated by root-irrigation. Subsequently, all seedlings were cultured in wet environment.
# (§4) After the disease of control groups were serious, spot area, disease index, and the diseased seedling rate were investigated to calculate the efficacy. Cucumber scab, cucumber brown spot, and pepper phytophthora blight were investigated by grading method. The spot extension area of cucumber gray mold and of rice sheath blight was investigated. The diseased seedling rate of cucumber sclerotinia rot was investigated. Disease index=Σ(amount of infected diseased leaves in a grade×relative value of the grade)×100/(total amount of leaves×9); Diseased seedling rate (%)=(total amount of seedlings−amount of diseased seedlings)/total amount of seedlings×100% Prevention and treatment effect (%)=(disease of control group−disease of experiment group)/disease of control group×100%
# Gibberella zea = experiment: organism not typed; assay type: cell-based; settings: read-out: Inhibition rate (%)
# [2] = tested on: Rhizoctonia solani (wheat sheath blight); experiment: microbe, parasite or virus in culture; assay type: cell-based; settings: read-out: Inhibition rate (%)
# Botrytis cinerea = experiment: microbe, parasite or virus in culture; assay type: cell-based; settings: read-out: Inhibition rate (%)
# Acute skin test = assay type: in vivo, rat; settings: in vivo, topical
# Procedure: as §1
# rat = experiment: Acute skin test; assay type: in vivo; settings: rat
# Procedure: as §1
# Fusarium moniliforme = experiment: microbe, parasite or virus in culture; assay type: cell-based; settings: Fusarium verticillioides, read-out: Inhibition rate (%)
# [3] = tested on: Rice sheath blight (strain WK-1); experiment: In vivo micro-screening assay
# Procedure: In Vivo Micro-Screening Assay
# as §2
# Cucumber scab strain: HX; cucumber brown spot strain: SDHGHB060509; cucumber sclerotinia rot strain: HGJH; pepper phytophthora blight strain: NSGP; and rice sheath blight strain: WK-1.
# as §3, §4
# [4] = tested on: Cucumber gray mold (SC504002); experiment: In vivo micro-screening assay
# Procedure: In Vivo Micro-Screening Assay
# as §2, §3, §4
# Fusarium oxysporum = experiment: microbe, parasite or virus in culture; assay type: cell-based; settings: read-out: Inhibition rate (%)
# melon powdery mildew = experiment: Field efficacy trial of emulsifier concentrate 1, melon powdery mildew; assay type: in vivo
# Procedure: To a beaker (1000 mL), 50 g (100% basis) of the compound of Formula (I), 150 g of DMF, and 50 g of acetone were added and stirred for dissolution. To the solution, 25 g of pesticide emulsifier No. 500 and 50 g of Tween 80, 20 g of epoxidized soybean oil, and […] of toluene were added. Thus, the emulsifier concentrate 1 having 5 wt. % of the compound of Formula (I) was obtained and further packed.
# On the basis of indoor activity evaluation, field efficacy trials of the compound of Formula (I) on cucumber downy mildew, cucumber powdery mildew, and melon powdery mildew were conducted.
# Pyricularia oryzae = experiment: microbe, parasite or virus in culture; assay type: cell-based; settings: read-out: Inhibition rate (%)
# [5] = tested on: Mice Polychromatic Erythrocytes; experiment: Micronucleus Test of Mice Polychromatic Erythrocytes; assay type: in vivo
# Procedure: as §1
# [6] = tested on: Botryosphaeria berengeriana; experiment: microbe, parasite or virus in culture; assay type: cell-based; settings: read-out: Inhibition rate (%)
# [7] = 12.5 mg/L, 7th day after first administration
# [8] = 12.5 mg/L, 7th day after second administration
# [9] = 12.5 mg/L, 14th day after second administration
# [10] = 25 mg/L, 7th day after first administration
# [11] = 25 mg/L, 7th day after second administration
# [12] = 25 mg/L, 14th day after second administration
# [13] = 50 mg/L, 7th day after first administration
# [14] = 50 mg/L, 7th day after second administration
# [15] = 50 mg/L, 14th day after second administration
# [16] = 100 mg/L, 7th day after first administration
# [17] = 100 mg/L, 7th day after second administration
# [18] = 100 mg/L, 14th day after second administration
structure (smiles),measurement,setting,value
"CO/C=C(/C(=O)OC)c1ccccc1CSc1nc2cc(OC)ccc2s1 [Compound of Formula (I), (E)-methyl 3-methoxy-2-(2-((5-methoxy-benzothiazol-2-ylthio)methyl)phenyl)acrylate]",Chromosome aberration test of mice spermatogonial,mice spermatogonial,Negative
same,inhibitory activity on NOX compared with azoxystrobin,NADH oxidase (NOX),much higher inhibitory activity
same,inhibition at 0.3 µg/mL,Cercospora arachidicola; 0.3 mg/L,30.9%
same,inhibition at 3 µg/mL,Cercospora arachidicola; 3 mg/L,35.7%
same,inhibition at 30 µg/mL,Cercospora arachidicola; 30 mg/L,40.5%
same,Efficacy (%),[1]; 100 mg/L,93.69%
same,Spot area (mm^2),[1]; 100 mg/L,7.78 mm^2
same,Efficacy (%),[1]; 500 mg/L,97.71%
same,Spot area (mm^2),[1]; 500 mg/L,2.82 mm^2
same,inhibition at 0.3 µg/mL,Gibberella zea,34.9%
same,inhibition at 3 µg/mL,Gibberella zea,45.9%
same,inhibition at 30 µg/mL,Gibberella zea,54.6%
same,inhibition at 0.3 µg/mL,[2]; 0.3 mg/L,22.2%
same,inhibition at 3 µg/mL,[2]; 3 mg/L,44.4%
same,inhibition at 30 µg/mL,[2]; 30 mg/L,68.5%
same,inhibition at 0.3 µg/mL,Botrytis cinerea; 0.3 mg/L,42.3%
same,inhibition at 3 µg/mL,Botrytis cinerea; 3 mg/L,42.7%
same,inhibition at 30 µg/mL,Botrytis cinerea; 30 mg/L,54.9%
same,LD50,Acute skin test; Female rat,> 2000 mg/kg
same,LD50,Acute skin test; Male rat,> 2000 mg/kg
same,Toxicity (acute skin test),rat,Low toxicity
same,inhibition at 0.3 µg/mL,Fusarium moniliforme; 0.3 mg/L,9.6%
same,inhibition at 3 µg/mL,Fusarium moniliforme; 3 mg/L,30.8%
same,inhibition at 30 µg/mL,Fusarium moniliforme; 30 mg/L,43.6%
same,prevention and treatment effect,[3],good prevention and treatment effect
same,Disease index,[3]; 100 mg/L,59.96
same,Efficacy (%),[3]; 100 mg/L,61.67%
same,Disease index,[3]; 500 mg/L,46.87
same,Efficacy (%),[3]; 500 mg/L,70.04%
same,Efficacy (%),[4]; 100 mg/L,88.71%
same,Spot area (mm^2),[4]; 100 mg/L,6.82 mm^2
same,Efficacy (%),[4]; 500 mg/L,90.67%
same,Spot area (mm^2),[4]; 500 mg/L,5.64 mm^2
same,inhibition at 0.3 µg/mL,Fusarium oxysporum; 0.3 mg/L,29.4%
same,inhibition at 3 µg/mL,Fusarium oxysporum; 3 mg/L,36.1%
same,inhibition at 30 µg/mL,Fusarium oxysporum; 30 mg/L,43.7%
same,Disease index,melon powdery mildew; [7],8.80
same,Efficacy (%),melon powdery mildew; [7],27.16%
same,Disease index,melon powdery mildew; [8],13.44
same,Efficacy (%),melon powdery mildew; [8],61.65%
same,Disease index,melon powdery mildew; [9],40.33
same,Efficacy (%),melon powdery mildew; [9],29.55%
same,Disease index,melon powdery mildew; [10],7.11
same,Efficacy (%),melon powdery mildew; [10],34.38%
same,Disease index,melon powdery mildew; [11],13.63
same,Efficacy (%),melon powdery mildew; [11],67.15%
same,Disease index,melon powdery mildew; [12],31.50
same,Efficacy (%),melon powdery mildew; [12],47.00%
same,Disease index,melon powdery mildew; [13],7.92
same,Efficacy (%),melon powdery mildew; [13],35.77%
same,Disease index,melon powdery mildew; [14],10.88
same,Efficacy (%),melon powdery mildew; [14],75.54%
same,Disease index,melon powdery mildew; [15],30.42
same,Efficacy (%),melon powdery mildew; [15],54.57%
same,Disease index,melon powdery mildew; [16],6.29
same,Efficacy (%),melon powdery mildew; [16],39.15%
same,Disease index,melon powdery mildew; [17],4.52
same,Efficacy (%),melon powdery mildew; [17],86.22%
same,Disease index,melon powdery mildew; [18],19.45
same,Efficacy (%),melon powdery mildew; [18],63.47%
same,inhibition at 0.3 µg/mL,Pyricularia oryzae,23.6%
same,inhibition at 3 µg/mL,Pyricularia oryzae,56.5%
same,inhibition at 30 µg/mL,Pyricularia oryzae,82.6%
same,Micronucleus Test of Mice Polychromatic Erythrocytes,[5],Negative
same,inhibition at 0.3 µg/mL,[6]; 0.3 mg/L,44.1%
same,inhibition at 3 µg/mL,[6]; 3 mg/L,49.6%
same,inhibition at 30 µg/mL,[6]; 30 mg/L,63.6%
